Legend:
Type in all cases: cell-based
Candida albicans = assay: Minimum Inhibitory Concentration (MIC) against Candida albicans; details: Candida albicans strain
Pseudomonas aeruginosa = assay: Minimum Inhibitory Concentration (MIC) against Pseudomonas aeruginosa; details: Pseudomonas aeruginosa strain
Staphylococcus aureus = assay: Minimum Inhibitory Concentration (MIC) against Staphylococcus aureus; details: Staphylococcus aureus strain
[1] = test system: Staphylococcus epidermidis; assay: Minimum Inhibitory Concentration (MIC) against Staphylococcus epidermidis; details: Staphylococcus epidermidis strain
Escherichia coli = assay: Minimum Inhibitory Concentration (MIC) against Escherichia coli; details: Escherichia coli strain

Compound	MIC Values (Candida albicans)	MIC Values (Pseudomonas aeruginosa)	MIC Values (Staphylococcus aureus)	MIC Values [1]	MIC Values (Escherichia coli)
C[C@@H]1[C@H](O)[C@@H](C)/C=C/C=C/C=C/C=C/C=C/C=C/C=C/[C@H](O[C@@H]2O[C@H](C)[C@@H](O)[C@H](N)[C@@H]2O)C[C@@H]2O[C@](O)(C[C@@H](O)C[C@@H](O)[C@H](O)CC[C@@H](O)C[C@@H](O)CC(=O)O[C@H]1C)C[C@H](O)[C@H]2C(=O)O [Amphotericin B]	3.15 (b) μg/ml				
Gemtamicin		37 (a) μg/ml	75 (a) μg/ml	150 (a) μg/ml	75 (a) μg/ml

Reference: patent US9295706B2, “Phytotherapic pharmaceutical combination of Lippia salviifolia and Lippia sidoides, phytotherapic pharmaceutical composition, process for preparing a phytotherapic pharmaceutical composition and veterinary uses thereof” (priority 2010, dated 2016)
